Literature values, collected in patent US20060270611A1, “PEDIATRIC FORMULATION OF TOPIRAMATE” (priority 2005, published 2006).

Details: clinical trials of human epilepsy; adjunctive therapy or monotherapy

## CC1(C)O[C@H]2[C@H]3OC(C)(C)O[C@]3(COS(N)(=O)=O)OC[C@H]2O1 [Topiramate, 2,3:4,5-bis-O-(1-methylethylidene) β-D-fructopyranose sulfamate]
  efficacy in treating simple and complex partial seizures and secondarily generalized seizures: effective as adjunctive therapy or as monotherapy
